Experimental data as given in patent publication US8071744B2, “TRP/HIS exchange and kynurenin induced TRP transport” (Carnegie Institution of Washington, priority 2007, dated 2011).

Legend:
COS-7 cells [1] = assay: Ratio imaging of intracellular tryptophan in perfused COS-7 cells expressing FLIPW-CTYT (uptake and exchange); assay type: cell-based, monkey; conditions: for effect on the uptake rate of 100 μM L-tryptophan: inhibitors at 5 mM; for tryptophan export from tryptophan-preloaded cells (counterexchange): extracellular amino acids at 100 μM, DL-HK 200-1000 μM
Method: (§1) Tissue culture and transfection. For cytosolic expression in COS-7 cells, the gene encoding CTYT was amplified by PCR with primers encoding unique BamHI and EcoRI restriction sites at the 5′ and 3′ end, respectively, and cloned into BamHI/EcoRI digested peDNA3.1(+) vector (Invitrogen), resulting in plasmid pTK222. COS-7 cells were grown in Dulbecco's modified Eagle's medium (high glucose; DMEM, Gibco) with 10% fetal calf serum and 50 μg; ml penicillin and 50 μg/ml streptomycin (Gibco). Cells were cultured at 37° C. and 5% CO2. For imaging, cells were cultured in 8-well LabTekII German tissue culture glass slides (Nalg Nunc International) and transiently transfected at 50-70% confluence using Lipofectamine 2000 Reagent (Invitrogen) in Opti-MEM I reduced serum medium (Gibco): After transfection, cells were cultured for 16 hours in Opti-MEM followed by 3 hours in DMEM prior to imaging.
Imaging. Ratio imaging was performed on an inverted fluorescence microscope (DM IRE2, Leica) with a Quant EM digital camera (Photometrics) and 20× oil immersion, 63× water immersion lenses (HC PL APO 20×/0.7 or HCX PL APO, Leica, Germany). Dual emission intensity ratios were simultaneously recorded using a DualView with an OI-5-EM filter set (eCFP 480/30; eYFP 535/40; Optical 17 Insights, USA) and Metafluor 6.3r6 software (Molecular Devices, USA). A Sutter Instruments Lambda DG4 provided excitation. Images were acquired within the linear detection range of the camera and exposure times varied between 50 to 200 ms, depending on the expression level, with software binning between 2 and 3. […] Cells were perfused with Tyrode's buffer at flow rates of 1.0 ml/min in a vacuum chamber with a total volume of 0.1 ml. Inhibitors BCH and MeIAB were used at 5 mM concentrations. For determination of the substrate specificity of the tryptophan exchange, all 20 amino acids were tested at 100 μM concentrations.

FLIPW-CTY = biological target: T1, FLIPW-CTY (Escherichia coli, UniProt P0A881); assay: In vitro FRET titration of FLIPW-CTY with tryptophan substrates; assay type: binding, E. coli
T1 construct: fused on or other part: eCFP at the N-terminus and Venus (YFP variant) at the C-terminus as FRET reporter handles; pRSETb vector leader; Gateway att-derived linkers
Method: (§2) In vitro characterization of FLIPW and FLIPpur sensors. […] The eCFP emission used for the ratio calculation was determined at 485 nm. Protein was diluted to give Venus/eYFP readouts of 20,000 to 30,000 at a manual gain between 70-75. By using the change in FRET ratio upon binding of ligand, affinity constants (Kd) were determined by fitting the titration curves to a single-site-binding isotherm: R=Rapo+(Rsat−Rapo)·(n·[L])/(Kd+[L]) with [L], ligand concentration; n, number of equal binding sites; R, ratio; Rapo, ratio in the absence of ligand; and Rsat, ratio at saturation with ligand. Three independent protein preparations were analyzed and each protein preparation was analyzed in triplicate.

unmodified TrpR = unmodified TrpR (Escherichia coli, UniProt P0A881); conditions: cited from earlier work
FLIPW-CTYT = biological target: T2, FLIPW-CTYT (Escherichia coli, UniProt P0A881); assay: In vitro FRET titration of FLIPW-CTYT with tryptophan substrates and kynurenines; assay type: binding, E. coli; conditions: data not shown
T2 construct: Venus (YFP variant); made in house; host or cells: E. coli BL21(DE3)gold
Method: as §2

COS-7 cells [2] = conditions: read-out: apparent KM for combined transport and metabolism; 96-well microplate, Michaelis-Menten fit of FRET increase rate, 0.05-25 μM L-tryptophan
Method: as §1

LAT1 = LAT1 (Homo sapiens, UniProt Q01650); conditions: oocytes; sum of free, incorporated and degraded tryptophan; cited from earlier work
LAT1, sequence (Q01650 whole entry, the tested form may be a part): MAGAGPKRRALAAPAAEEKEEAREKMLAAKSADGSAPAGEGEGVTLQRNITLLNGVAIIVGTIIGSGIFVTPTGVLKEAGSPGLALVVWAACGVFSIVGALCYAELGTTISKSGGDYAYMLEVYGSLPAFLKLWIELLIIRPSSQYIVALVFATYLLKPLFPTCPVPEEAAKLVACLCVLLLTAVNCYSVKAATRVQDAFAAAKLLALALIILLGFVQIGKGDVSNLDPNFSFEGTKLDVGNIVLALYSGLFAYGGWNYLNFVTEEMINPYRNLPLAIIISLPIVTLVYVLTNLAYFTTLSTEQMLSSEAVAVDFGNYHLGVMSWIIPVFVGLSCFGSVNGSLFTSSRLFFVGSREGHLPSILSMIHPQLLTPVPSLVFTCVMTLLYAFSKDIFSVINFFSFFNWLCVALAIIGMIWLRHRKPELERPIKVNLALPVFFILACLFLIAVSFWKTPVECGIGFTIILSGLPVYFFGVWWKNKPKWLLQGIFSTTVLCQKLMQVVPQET

KB cells = assay: FRET imaging of intracellular tryptophan in interferon-gamma treated KB cells; assay type: cell-based, human; conditions: IFNγ 500 U/ml, perfusion with Tyrode's buffer
Method: It was also assessed whether affecting the metabolism of tryptophan could be monitored using the FRET nanosensors. The induction of indoleamine 2,3-dioxygenase (IDO) by interferon-gamma in KB cells has been described by Ozaki et al. (Proc. Natl. Acad. Sci. U.S.A. (1988)85: 1242-1246). Indoleamine 2,3-dioxygenase degrades tryptophan to formyl-kynurenine in the cytosol. Accordingly, KB cells were seeded at 10%, 25%, 50% dilution (derived from a suspension that was from ˜90% confluent plate). Interferon gamma (IFNγ) was added at 500 and 1000 U/ml. KB cells used as a control (i.e. no IFNγ) were seeded at 10% dilution only. KB cells were incubated in growth medium (MEM-alpha, 10° A FBS (fetal bovine serum), penicillin/streptomycin) and then in OPTIMEM for 4 days prior to imaging. Cells were transfected (in OPTIMEM) with the pTK222c construct 1 day prior to imaging. IFNγ was maintained during transfection in OPTIMEM. Three hours prior to imaging, the cells were incubated in growth medium (containing IFNγ in the respective cultures). After three hours, the growth medium was exchanged with Tyrode's solution and the cells were kept in incubation chamber until analysis. The cells were perfused with 1 μM, 5 μM, 50 μM, and 100 μM L-tryptophan in Tyrode's solution.

## CNC(C)(C)C(=O)O
COS-7 cells [1]
  effect on the uptake rate of 100 μM L-tryptophan: did not decrease uptake rates

## NC1(C(=O)O)CC2CCC1C2 (stereo not drawn) [BCH, 2-aminobicyclo-(2,2,1)-heptane-2-carboxylic acid]
COS-7 cells [1]
  effect on the uptake rate of 100 μM L-tryptophan: decreased the uptake of tryptophan

## N[C@H](Cc1c[nH]c2ccccc12)C(=O)O [D-tryptophan]
FLIPW-CTY
  concentration for decrease of FRET ratio relative to L-tryptophan: about 5 fold
Unmodified TrpR
  reduced affinity of unmodified TrpR compared to L-tryptophan: 20 fold

## Nc1c(O)cccc1C(=O)O [HAA, hydroxy-anthranilic acid]
COS-7 cells [1]
  tryptophan export from tryptophan-preloaded cells (counterexchange): did not result in tryptophan export
FLIPW-CTYT
  FLIPW-CTYT response or interference with tryptophan binding in vitro: did not result in a FLIPW-CTYT response or interfere with tryptophan binding to the sensor

## Nc1c(O)cccc1C(=O)CC(N)C(=O)O (stereo not drawn) [HK, 3-hydroxy-kynurenine]
COS-7 cells [1]
  tryptophan export from tryptophan-preloaded cells (counterexchange): resulted in reduction of the fluorophore emission ratios in the COS-7 cells, evidencing tryptophan export
FLIPW-CTYT
  FLIPW-CTYT response or interference with tryptophan binding in vitro: did not result in a FLIPW-CTYT response or interfere with tryptophan binding to the sensor

## Nc1ccccc1C(=O)CC(N)C(=O)O (stereo not drawn) [K, kynurenine]
COS-7 cells [1]
  tryptophan export from tryptophan-preloaded cells (counterexchange): resulted in reduction of the fluorophore emission ratios in the COS-7 cells, evidencing tryptophan export
FLIPW-CTYT
  FLIPW-CTYT response or interference with tryptophan binding in vitro: did not result in a FLIPW-CTYT response or interfere with tryptophan binding to the sensor

## N[C@@H](Cc1c[nH]c2ccccc12)C(=O)O [L-tryptophan]
COS-7 cells [1]; perfusion imaging, Michaelis-Menten fit
  affinity of the cells for combined uptake and metabolism of tryptophan: 2.6 ± 1.1 µM
COS-7 cells [2]
  Km: 880 ± 270 nM
LAT1
  affinity of LAT1 for tryptophan uptake: 21.4 µM

## N[C@@H](Cc1c[nH]cn1)C(=O)O [histidine, L-histidine]
COS-7 cells [1]
  tryptophan export from tryptophan-preloaded cells (counterexchange): able to promote tryptophan export

## CC[C@H](C)[C@H](N)C(=O)O [isoleucine]
COS-7 cells [1]
  tryptophan export from tryptophan-preloaded cells (counterexchange): able to promote tryptophan export

## CC(C)C[C@H](N)C(=O)O [leucine]
COS-7 cells [1]
  tryptophan export from tryptophan-preloaded cells (counterexchange): able to promote tryptophan export

## CSCC[C@H](N)C(=O)O [methionine]
COS-7 cells [1]
  tryptophan export from tryptophan-preloaded cells (counterexchange): able to promote tryptophan export

## N[C@@H](Cc1ccccc1)C(=O)O [phenylalanine]
COS-7 cells [1]
  tryptophan export from tryptophan-preloaded cells (counterexchange): able to promote tryptophan export

## N[C@@H](Cc1ccc(O)cc1)C(=O)O [tyrosine]
COS-7 cells [1]
  tryptophan export from tryptophan-preloaded cells (counterexchange): able to promote tryptophan export

## CC(C)[C@H](N)C(=O)O [valine]
COS-7 cells [1]
  tryptophan export from tryptophan-preloaded cells (counterexchange): able to promote tryptophan export

B1: IFNγ: cytokine interferon gamma, induces indoleamine 2,3-dioxygenase in KB cells (protein, UniProt P01579 24-161, looked up)
Interferon gamma: QDPYVKEAENLKKYFNAGHSDVADNGTLFLGILKNWKEESDRKIMQSQIVSFYFKLFKNFKDDQSIQKSVETIKEDMNVKFFNSNKKKRDDFEKLTNYSVTDLNVQRKAIHELIQVMAELSPAAKTGKRKRSQMLFRG
KB cells
  effect on intracellular tryptophan concentration: lower the intracellular tryptophan concentration
